This assay deals with endogenous NPY response (Y1) of human Bowes melanoma cells (HMCB). Kind of assay: Block of endogenous NPY response in host human Bowes melanoma cells. Particulars: at 10 uM; host Bowes melanoma cells with low levels of Y1 responses.

From patent US6949564B2, “NPY-5 antagonists” (Pfizer Inc., priority 2002, dated 2005) come the findings set out here.

Take `NC(N)=NCCC[C@@H](NC(=O)C(c1ccccc1)c1ccccc1)C(=O)NCc1ccc(O)cc1` [BIBP3226]: the “block of the endogenous NPY response” value is on record as “completely blocks”.
